Experiments:
adenosine A2A receptor = adenosine A2A receptor (Homo sapiens (Human), UniProt P29274); test: Adenosine receptor activity assay (Table 1), A2A activity; format: biochemical; conditions: read-out: Ave A2A cAMP IC50
adenosine A2B receptor = adenosine A2B receptor (Homo sapiens (Human), UniProt P29275); test: Adenosine receptor activity assay (Table 1), A2B activity; format: biochemical; conditions: for IC50: read-out: Ave A2B cAMP IC50
[1] = A2A activity to A2B activity (A2A/A2B)
[2] = A2A activity to the A2B activity, A2A/A2B

adenosine A2A receptor, sequence (P29274 whole entry): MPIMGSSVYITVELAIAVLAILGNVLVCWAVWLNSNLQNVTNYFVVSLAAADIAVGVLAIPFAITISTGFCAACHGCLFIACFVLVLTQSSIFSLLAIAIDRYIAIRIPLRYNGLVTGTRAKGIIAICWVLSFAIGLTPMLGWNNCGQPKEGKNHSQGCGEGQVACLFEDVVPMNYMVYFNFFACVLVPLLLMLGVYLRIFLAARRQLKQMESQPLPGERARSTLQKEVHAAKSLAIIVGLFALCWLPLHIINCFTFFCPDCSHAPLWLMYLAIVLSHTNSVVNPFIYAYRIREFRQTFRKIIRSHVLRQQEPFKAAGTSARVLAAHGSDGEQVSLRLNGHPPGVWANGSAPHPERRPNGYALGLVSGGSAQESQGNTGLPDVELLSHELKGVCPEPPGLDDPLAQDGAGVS
adenosine A2B receptor, sequence (P29275 whole entry): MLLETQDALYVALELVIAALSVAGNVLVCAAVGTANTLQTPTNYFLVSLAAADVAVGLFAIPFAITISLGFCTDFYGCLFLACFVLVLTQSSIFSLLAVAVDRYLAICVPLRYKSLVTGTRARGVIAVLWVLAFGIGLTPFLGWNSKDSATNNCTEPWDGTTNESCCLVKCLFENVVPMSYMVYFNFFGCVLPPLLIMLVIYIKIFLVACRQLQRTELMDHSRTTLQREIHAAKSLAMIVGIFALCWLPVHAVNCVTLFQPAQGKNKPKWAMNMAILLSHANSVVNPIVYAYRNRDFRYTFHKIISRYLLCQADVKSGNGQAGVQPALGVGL

Structure (SMILES) | IC50 (adenosine A2A receptor) [nM] | Ratio (adenosine A2B receptor; [1]) | IC50 (adenosine A2B receptor) [nM] | Ratio (adenosine A2B receptor; [2])
Cc1cc2nc(N[C@@H](C)c3cccnc3)nc(C(=O)NC[C@H]3CCOC3)c2s1 [Example Z388, 6-Methyl-2-(((S)-1-(pyridin-3-yl)ethyl)amino)-N—(((R)-tetrahydrofuran-3-yl)methyl)thieno[3,2-d]pyrimidine-4-carboxamide] | > 500 | 10.69 | 50 to 100 | 
C[C@H](NC(=O)c1nc(N[C@@H](C)c2ccccc2)nc2ccsc12)c1ccccc1 [Example Z394, N—((S)-1-Phenylethyl)-2-(((S)-1-phenylethyl)amino)thieno[3,2-d]pyrimidine-4-carboxamide] | 100 to 500 | 0.87 | 100 to 500 | 
C[C@H](Nc1nc(C(=O)N[C@@H]2CC[C@@H](O)C2)c2sccc2n1)c1cncc(F)c1 [Example Z395, 2-(((S)-1-(5-Fluoropyridin-3-yl)ethyl)amino)-N-((1R,3R)-3-hydroxycyclopentyl)thieno[3,2-d]pyrimidine-4-carboxamide] | 100 to 500 | 32.64 | 10 to 50 | 
C[C@H](Nc1nc(C(=O)N(C)CCc2ccc(O)cc2)c2sccc2n1)c1cncc(F)c1 [Example Z396, (S)-2-((1-(5-Fluoropyridin-3-yl)ethyl)amino)-N-(4-hydroxyphenethyl)-N-methylthieno[3,2-d]pyrimidine-4-carboxamide] | > 500 | 6.83 | > 500 | 
C[C@H](Nc1nc(C(=O)NC2CNC2)c2sccc2n1)c1cncc(F)c1 [Example Z397, (S)—N-(Azetidin-3-yl)-2-((1-(5-fluoropyridin-3-yl)ethyl)amino)thieno[3,2-d]pyrimidine-4-carboxamide] | > 500 | 11.51 | > 500 | 
COc1ccc(Oc2cc(CNC(=O)c3nc(N[C@@H](C)c4cncc(F)c4)nc4ccsc34)ccn2)cc1 [Example Z398, (S)-2-((1-(5-Fluoropyridin-3-yl)ethyl)amino)-N-((2-(4-methoxyphenoxy)pyridin-4-yl)methyl)thieno[3,2-d]pyrimidine-4-carboxamide] | 100 to 500 | 2.82 | 100 to 500 | 
CO[C@@H](C)CNC(=O)c1nc(N[C@@H](C)c2cccnc2)nc2cc(C)sc12 [Example Z399, N—((S)-2-Methoxypropyl)-6-methyl-2-(((S)-1-(pyridin-3-yl)ethyl)amino)thieno[3,2-d]pyrimidine-4-carboxamide] | > 500 |  | 10 to 50 | 161.94
CO[C@H](C)CNC(=O)c1nc(N[C@@H](C)c2cccnc2)nc2cc(C)sc12 [Example Z400, N—((R)-2-Methoxypropyl)-6-methyl-2-(((S)-1-(pyridin-3-yl)ethyl)amino)thieno[3,2-d]pyrimidine-4-carboxamide] | > 500 |  | 50 to 100 | 12.22
C[C@H](Nc1nc(C(=O)N2CCCC2)c2sccc2n1)c1ccnc(F)c1 [Example Z406, (S)-(2-((1-(2-Fluoropyridin-4-yl)ethyl)amino)thieno[3,2-d]pyrimidin-4-yl)(pyrrolidin-1-yl)methanone] | 100 to 500 |  | 10 to 50 | 
C[C@H](Nc1nc(C(=O)N2CC[C@H](O)C2)c2sccc2n1)c1ccnc(F)c1 [Example Z407, (2-(((S)-1-(2-Fluoropyridin-4-yl)ethyl)amino)thieno[3,2-d]pyrimidin-4-yl)((S)-3-hydroxypyrrolidin-1-yl)methanone] | > 500 |  | 100 to 500 | 8.11
C[C@H](Nc1nc(C(=O)N2CC[C@@H](O)C2)c2sccc2n1)c1ccnc(F)c1 [Example Z408, (2-(((S)-1-(2-Fluoropyridin-4-yl)ethyl)amino)thieno[3,2-d]pyrimidin-4-yl)((R)-3-hydroxypyrrolidin-1-yl)methanone] | > 500 |  | 50 to 100 | 6.69
C[C@H](Nc1nc(C(=O)NCCc2cccc(Oc3ccccc3)c2)c2sccc2n1)c1cncc(F)c1 [Example Z417, (S)-2-((1-(5-Fluoropyridin-3-yl)ethyl)amino)-N-(3-phenoxyphenethyl)thieno[3,2-d]pyrimidine-4-carboxamide] | > 500 |  | 100 to 500 | 4.87
COc1ccc(CCNC(=O)c2nc(N[C@@H](C)c3cncc(F)c3)nc3ccsc23)cc1 [Example Z420, (S)-2-((1-(5-Fluoropyridin-3-yl)ethyl)amino)-N-(4-methoxyphenethyl)thieno[3,2-d]pyrimidine-4-carboxamide] | 100 to 500 |  | 50 to 100 | 5.38
COC(=O)c1ccc(CCNC(=O)c2nc(N[C@@H](C)c3cncc(F)c3)nc3ccsc23)cc1 [Example Z423, Methyl (S)-4-(2-(2-((1-(5-fluoropyridin-3-yl)ethyl)amino)thieno[3,2-d]pyrimidine-4-carboxamido)ethyl)benzoate] | > 500 |  | 100 to 500 | 5.22
C[C@H](Nc1nc(C(=O)NCCC2CCCC2)c2sccc2n1)c1ccccn1 [Example Z424, (S)—N-(2-Cyclopentylethyl)-2-((1-(pyridin-2-yl)ethyl)amino)thieno[3,2-d]pyrimidine-4-carboxamide] | 50 to 100 |  | 50 to 100 | 1.46
C[C@H](Nc1nc(C(=O)NCCC2CCN(C(=O)OC(C)(C)C)C2)c2sccc2n1)c1ccccn1 (stereo partly drawn) [Example Z425, tert-Butyl 3-(2-(2-(((S)-1-(pyridin-2-yl)ethyl)amino)thieno[3,2-d]pyrimidine-4-carboxamido)ethyl)pyrrolidine-1-carboxylate] | 50 to 100 |  | 100 to 500 | 0.82
C[C@H](Nc1nc(C(=O)NCCC2CN(C(=O)OC(C)(C)C)C2)c2sccc2n1)c1ccccn1 [Example Z426, tert-Butyl (S)-3-(2-(2-((1-(pyridin-2-yl)ethyl)amino)thieno[3,2-d]pyrimidine-4-carboxamido)ethyl)azetidine-1-carboxylate] | 100 to 500 |  | 50 to 100 | 3.47
C[C@H](Nc1nc(C(=O)NCCC2CCNC2)c2sccc2n1)c1ccccn1 (stereo partly drawn) [Example Z431, 2-(((S)-1-(Pyridin-2-yl)ethyl)amino)-N-(2-(pyrrolidin-3-yl)ethyl)thieno[3,2-d]pyrimidine-4-carboxamide] | > 500 |  | 100 to 500 | 37.04
C[C@H](Nc1nc(C(=O)NCCC2CNC2)c2sccc2n1)c1ccccn1 [Example Z432, (S)—N-(2-(Azetidin-3-yl)ethyl)-2-((1-(pyridin-2-yl)ethyl)amino)thieno[3,2-d]pyrimidine-4-carboxamide] | > 500 |  | 100 to 500 | 57.47
COc1ccc(CNc2nc(C(=O)NC3CCC3)c3sccc3n2)cn1 [Example Z434, N-Cyclobutyl-2-(((6-methoxypyridin-3-yl)methyl)amino)thieno[3,2-d]pyrimidine-4-carboxamide] | 50 to 100 |  | > 500 | 0.08
COc1ccc(CNc2nc(C(=O)NCc3cccnc3)c3sccc3n2)cn1 [Example Z436, 2-(((6-Methoxypyridin-3-yl)methyl)amino)-N-(pyridin-3-ylmethyl)thieno[3,2-d]pyrimidine-4-carboxamide] | 100 to 500 |  | > 500 | 0.15
COc1cccc(CCNC(=O)c2nc(N[C@@H](C)c3ccccn3)nc3ccsc23)c1 [Example Z437, (S)—N-(3-Methoxyphenethyl)-2-((1-(pyridin-2-yl)ethyl)amino)thieno[3,2-d]pyrimidine-4-carboxamide] | 100 to 500 |  | 100 to 500 | 
CCO[C@@H]1CCN(C(=O)c2nc(N[C@@H](C)c3ccccn3)nc3ccsc23)C1 [Example Z438, ((R)-3-Ethoxypyrrolidin-1-yl)(2-(((S)-1-(pyridin-2-yl)ethyl)amino)thieno[3,2-d]pyrimidin-4-yl)methanone] | 50 to 100 |  | 10 to 50 | 2.65
CCOc1ccc(CNc2nc(C(=O)NCCc3cccc(O)c3)c3sccc3n2)cn1 [Example Z439, 2-(((6-Ethoxypyridin-3-yl)methyl)amino)-N-(3-hydroxyphenethyl)thieno[3,2-d]pyrimidine-4-carboxamide] | 100 to 500 |  | > 500 | 0.29
CO[C@H]1CCN(C(=O)c2nc(N[C@@H](C)c3ccccn3)nc3c(C)csc23)C1 [Example Z440, ((S)-3-Methoxypyrrolidin-1-yl)(7-methyl-2-(((S)-1-(pyridin-2-yl)ethyl)amino)thieno[3,2-d]pyrimidin-4-yl)methanone] | 100 to 500 |  | 100 to 500 | 1.91
CO[C@@H]1CCN(C(=O)c2nc(N[C@@H](C)c3ccccn3)nc3c(C)csc23)C1 [Example Z441, ((R)-3-Methoxypyrrolidin-1-yl)(7-methyl-2-(((S)-1-(pyridin-2-yl)ethyl)amino)thieno[3,2-d]pyrimidin-4-yl)methanone] | 10 to 50 |  | 10 to 50 | 1.21
CCO[C@H]1CCN(C(=O)c2nc(N[C@@H](C)c3ccccn3)nc3ccsc23)C1 [Example Z442, ((S)-3-Ethoxypyrrolidin-1-yl)(2-(((S)-1-(pyridin-2-yl)ethyl)amino)thieno[3,2-d]pyrimidin-4-yl)methanone] | 100 to 500 |  | 100 to 500 | 2.19
Cc1csc2c(C(=O)NCc3ccccc3)nc(N[C@@H](C)c3ccccn3)nc12 [Example Z443, (S)—N-Benzyl-7-methyl-2-((1-(pyridin-2-yl)ethyl)amino)thieno[3,2-d]pyrimidine-4-carboxamide] | 10 to 50 |  | 50 to 100 | 0.44
COc1cccc(CCNC(=O)c2nc(N[C@@H](C)c3ccccn3)nc3c(C)csc23)c1 [Example Z444, (S)—N-(3-Methoxyphenethyl)-7-methyl-2-((1-(pyridin-2-yl)ethyl)amino)thieno[3,2-d]pyrimidine-4-carboxamide] | 50 to 100 |  | 100 to 500 | 0.35

From patent US11254686B1 (Corvus Pharmaceuticals, Inc., priority 2017, dated 2022)
